From patent publication US20200131180A1, “POSITIVE ALLOSTERIC MODULATORS OF THE MUSCARINIC ACETYLCHOLINE RECEPTOR M1” (Vanderbilt University, priority 2018, published 2020)

Target: T1, human mAChR M1 (Homo sapiens, UniProt P11229)
T1 sequence (P11229 1-460): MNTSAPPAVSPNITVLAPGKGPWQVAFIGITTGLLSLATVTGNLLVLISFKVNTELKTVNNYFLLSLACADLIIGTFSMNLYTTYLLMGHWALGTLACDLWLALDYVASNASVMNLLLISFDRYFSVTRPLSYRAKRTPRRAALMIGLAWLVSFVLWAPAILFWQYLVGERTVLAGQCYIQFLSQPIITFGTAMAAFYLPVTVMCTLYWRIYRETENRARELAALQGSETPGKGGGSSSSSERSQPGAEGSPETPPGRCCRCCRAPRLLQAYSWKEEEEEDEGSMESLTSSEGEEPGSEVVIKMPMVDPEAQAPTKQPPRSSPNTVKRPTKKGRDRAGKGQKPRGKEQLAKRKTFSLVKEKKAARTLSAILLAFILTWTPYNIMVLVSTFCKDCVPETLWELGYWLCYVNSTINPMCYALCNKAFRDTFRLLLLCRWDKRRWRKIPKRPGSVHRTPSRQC
Assay: mAChR M1 cell-based functional assay (calcium mobilization, PAM activity)
Conditions: CHO-K1 cells expressing hM1, calcium flux (Fluo-4); for EC50: concentration-dependent increase in the EC20 acetylcholine response; for Emax: potentiation of EC20 acetylcholine response
Summary of the method: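 CHO-K1 cells stably expressing hM1, Fluo-4 AM-loaded; compounds (11-point 1:3 CRC) added, then acetylcholine at EC20 (144 s) and EC80 (230 s). Calcium flux read by FDSS fluorescence ratio; PAM activity is the concentration-dependent increase in the EC20 ACh response, Emax relative to ACh maximum; four-parameter logistic fit.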

Structure (SMILES)	EC50 [nM]	Emax [%]
O=C(NC1CCOCC1)c1cc(Cc2ccc(-n3cccn3)cc2)cc2ncnn12 [compound 67, 7-(4-(1H-pyrazol-1-yl)benzyl)-N-(tetrahydro-2H-pyran-4-yl)-[1,2,4]triazolo[1,5-a]pyridine-5-carboxamide]		46
Cc1nc(-c2ccc(Cc3cc(C(=O)N[C@H]4CCCC[C@@H]4O)c4ncnn4c3)cc2)co1 [compound 32, N-[(1S,2S)-2-hydroxycyclohexyl]-6-[[4-(2-methyloxazol-4-yl)phenyl]methyl]-[1,2,4]triazolo[1,5-a]pyridine-8-carboxamide]	1430	87
Cn1ccc(-c2ccc(Cc3cc(C(=O)NC4CC5(COC5)C4)c4nccn4c3)cc2)n1 [compound 3, 6-[[4-(1-methylpyrazol-3-yl)phenyl]methyl]-N-(2-oxaspiro[3.3]heptan-6-yl)imidazo[1,2-a]pyridine-8-carboxamide]	4290	76
Cn1ccc(-c2ccc(Cc3cc(C(=O)N[C@@H]4CCC[C@H]4O)c4nccn4c3)cc2)n1 [compound 4, N-[(1R,2R)-2-hydroxycyclopentyl]-6-[[4-(1-methylpyrazol-3-yl)phenyl]methyl]imidazo[1,2-a]pyridine-8-carboxamide]	1500	80
O=C(N[C@H]1CCCC[C@@H]1O)c1cc(Cc2ccc(-n3cccn3)cc2)cn2ccnc12 [compound 22, N-[(1S,2S)-2-hydroxycyclohexyl]-6-[(4-pyrazol-1-ylphenyl)methyl]imidazo[1,2-a]pyridine-8-carboxamide]	610	84
Cn1ccc(-c2cc(F)c(Cc3cc(C(=O)N[C@H]4CCCC[C@@H]4O)c4ncnn4c3)c(F)c2)n1 [compound 42, 6-[[2,6-difluoro-4-(1-methylpyrazol-3-yl)phenyl]methyl]-N-[(1S,2S)-2-hydroxycyclohexyl]-[1,2,4]triazolo[1,5-a]pyridine-8-carboxamide]	936	83

Further compounds by falling EC50, results first:

EC50 [nM]	Emax [%]	Structure (SMILES)
604	87	O=C(N[C@H]1CCCC[C@@H]1O)c1cc(Cc2ccc(-n3cccn3)cc2)cn2ncnc12 [compound 33, N-[(1S,2S)-2-hydroxycyclohexyl]-6-[(4-pyrazol-1-ylphenyl)methyl]-[1,2,4]triazolo[1,5-a]pyridine-8-carboxamide]
414	70	Cn1ccc(-c2ccc(Cc3cc(C(=O)N[C@H]4CCCC[C@@H]4O)c4nccn4c3)c(F)c2)n1 [compound 52, 6-[[2-fluoro-4-(1-methylpyrazol-3-yl)phenyl]methyl]-N-[(1S,2S)-2-hydroxycyclohexyl]imidazo[1,2-a]pyridine-8-carboxamide]
229	76	Cn1cc(-c2ccc(Cc3cc(C(=O)N[C@H]4CCCC[C@@H]4O)c4ncnn4c3)c(F)c2)cn1 [compound 48, 6-[[2-fluoro-4-(1-methylpyrazol-4-yl)phenyl]methyl]-N-[(1S,2S)-2-hydroxycyclohexyl]-[1,2,4]triazolo[1,5-a]pyridine-8-carboxamide]
